This note sets out measurements from BindingDB's records for doi:10.1021/jm500892k (Shandong University, 2014).

Test [1] can be described thus: Inhibition of Influenza A virus A/duck/china/1206/2012(H5N1) Neuraminidase.
A short description of test [2]: Inhibition of Influenza A virus A/duck/china/QJ/01(H5N1) Neuraminidase.
Test [3] in a line: Inhibition of Influenza A virus A/chicken/shandong/S2/02(H9N2) Neuraminidase.

The term IC50 denotes the concentration needed to halve the response being measured. For the molecule `CCC(CC)O[C@@H]1C=C(C(=O)NO)C[C@H](NC(=N)N)[C@H]1NC(C)=O`, the IC50 in test [1] is > 200 nM; in test [2], > 200 nM; in test [3] it was 160 nM.
For `CCC(CC)O[C@@H]1C=C(C(=O)NO)C[C@H](N)[C@H]1NC(C)=O`, the IC50 in test [1] is > 200 nM; in test [2] it was 180 nM; in test [3], 120 nM.
On the same counts, the results for `CCC(CC)O[C@@H]1C=C(C(=O)O)C[C@H](N(Cc2cccs2)C(=N)N)[C@H]1NC(C)=O` are 88 nM, 190 nM and 350 nM.
For the molecule `CCC(CC)O[C@@H]1C=C(C(=O)O)C[C@H](N(Cc2ccccc2)C(=N)N)[C@H]1NC(C)=O`, the IC50 in test [1] is 3020 nM; in test [2] it was > 3000 nM.
Take `CCC(CC)O[C@@H]1C=C(C(=O)O)C[C@H](N(Cc2ccc(C(C)C)cc2)C(=N)N)[C@H]1NC(C)=O`: the IC50 in test [1] is 1560 nM; in test [2], 3200 nM; in test [3], 2160 nM.
Consider `CCC(CC)O[C@@H]1C=C(C(=O)O)C[C@H](N(Cc2ccccc2OC)C(=N)N)[C@H]1NC(C)=O`, for which the values for the IC50 in test [1] and in test [3] were 250 nM and 360 nM, respectively.
Take `CCC(CC)O[C@@H]1C=C(C(=O)O)C[C@H](N(Cc2ccc(-c3ccccc3)cc2)C(=N)N)[C@H]1NC(C)=O`: the IC50 in test [1] stood at 270 nM; in test [2] it was 430 nM; in test [3], 370 nM.
For `CCCN(C(=N)N)[C@H]1CC(C(=O)O)=C[C@@H](OC(CC)CC)[C@@H]1NC(C)=O` the same measures were 1140 nM, 3900 nM and > 5000 nM.
On the same counts, the results for `CCC(CC)O[C@@H]1C=C(C(=O)O)C[C@H](N(CC(C)C)C(=N)N)[C@H]1NC(C)=O` are 390 nM, 450 nM and > 5000 nM.
For `CCCCCN(C(=N)N)[C@H]1CC(C(=O)O)=C[C@@H](OC(CC)CC)[C@@H]1NC(C)=O` the same measures were 3620 nM, > 3000 nM and > 5000 nM.
As to `CCCCN(C(=N)N)[C@H]1CC(C(=O)O)=C[C@@H](OC(CC)CC)[C@@H]1NC(C)=O`, the IC50 in test [1] was > 3000 nM; in test [2], > 3000 nM; in test [3], > 1230 nM.
With `CCC(CC)O[C@@H]1C=C(C(=O)O)C[C@H](N(CCC(C)C)C(=N)N)[C@H]1NC(C)=O`, the IC50 is 2540 nM in test [1], > 3000 nM in test [2] and 4880 nM in test [3].
For `CCC(CC)CN(C(=N)N)[C@H]1CC(C(=O)O)=C[C@@H](OC(CC)CC)[C@@H]1NC(C)=O`, the half-maximal inhibitory concentration (IC50) was > 3000 nM in test [1], > 3000 nM in test [2] and > 5000 nM in test [3].
Regarding `CCC(CC)O[C@@H]1C=C(C(=O)O)C[C@H](N(CCCc2ccccc2)C(=N)N)[C@H]1NC(C)=O`, the IC50 is 1780 nM in test [1], > 3000 nM in test [2] and > 5000 nM in test [3].
For `CCC(CC)CN[C@H]1CC(C(=O)O)=C[C@@H](OC(CC)CC)[C@@H]1NC(C)=O` the same measures were 43 nM, 540 nM and 70 nM.
Consider `CCCCN[C@H]1CC(C(=O)O)=C[C@@H](OC(CC)CC)[C@@H]1NC(C)=O`, for which the results for the IC50 in test [1], in test [2] and in test [3] were 56 nM, 76 nM and 630 nM, respectively.
On to `CCC(CC)O[C@@H]1C=C(C(=O)O)C[C@H](NCC(C)C)[C@H]1NC(C)=O`, for which the half-inhibitory concentration (IC50) in test [1] worked out at 83 nM; in test [2] it was 99 nM; in test [3] it was 1750 nM.
For `CCC(CC)O[C@@H]1C=C(C(=O)O)C[C@H](NCc2cccs2)[C@H]1NC(C)=O` the same measures were 53 nM, 54 nM and 99 nM.
Consider `CCC(CC)O[C@@H]1C=C(C(=O)O)C[C@H](NCc2ccccc2)[C@H]1NC(C)=O`, for which the values for the IC50 in test [1], in test [2] and in test [3] were 19 nM, 80 nM and 420 nM, respectively.
On the same counts, the results for `CCC(CC)O[C@@H]1C=C(C(=O)O)C[C@H](NCc2ccccc2OC)[C@H]1NC(C)=O` are 117 nM, > 2000 nM and 250 nM.
On the same counts, the results for `CCC(CC)O[C@@H]1C=C(C(=O)O)C[C@H](NCc2ccccc2O)[C@H]1NC(C)=O` are 63 nM, 194 nM and 5000 nM.
For `CCC(CC)O[C@@H]1C=C(C(=O)O)C[C@H](NCc2ccccc2Cl)[C@H]1NC(C)=O` the same measures were 14 nM, 29 nM and > 430 nM.
For the molecule `CCC(CC)O[C@@H]1C=C(C(=O)O)C[C@H](NCc2ccccc2Br)[C@H]1NC(C)=O`, the IC50 in test [1] is 38 nM; in test [2] it was 56 nM; in test [3] it was 42 nM.
For `CCC(CC)O[C@@H]1C=C(C(=O)O)C[C@H](NCc2ccccc2F)[C@H]1NC(C)=O` the same measures were 90 nM, 108 nM and 650 nM.
In the case of `CCC(CC)O[C@@H]1C=C(C(=O)O)C[C@H](NC/C=C/c2ccccc2)[C@H]1NC(C)=O`, the IC50 in test [1] was 48 nM; in test [2], 106 nM; in test [3], 3230 nM.
For `CCC(CC)O[C@@H]1C=C(C(=O)O)C[C@H](NCc2ccc(-c3ccccc3)cc2)[C@H]1NC(C)=O` the same measures were 3.8 nM, 6.7 nM and 580 nM.
On the same counts, the results for `CCC(CC)O[C@@H]1C=C(C(=O)O)C[C@H](NCCCc2ccccc2)[C@H]1NC(C)=O` are 81 nM, 190 nM and > 5000 nM.
For `CCC(CC)O[C@@H]1C=C(C(=O)O)C[C@H](NCCCN)[C@H]1NC(C)=O` the same measures were > 200 nM, > 200 nM and 1050 nM.
Take `CCC(CC)O[C@@H]1C=C(C(=O)O)C[C@H](NCc2ccccc2OCc2ccco2)[C@H]1NC(C)=O`: the IC50 is > 200 nM in test [1], > 200 nM in test [2] and 720 nM in test [3].
On to `C=CCOc1ccccc1CN[C@H]1CC(C(=O)O)=C[C@@H](OC(CC)CC)[C@@H]1NC(C)=O`, for which the IC50 in test [1] was > 200 nM; in test [2], > 200 nM; in test [3], 1910 nM.
On to `CCC(CC)O[C@@H]1C=C(C(=O)O)C[C@H](NCc2ccc(-c3ccccc3)cc2Cl)[C@H]1NC(C)=O`, for which the IC50 in test [1] was found to be 27 nM; in test [2], 44 nM; in test [3], 340 nM.
For `CCC(CC)O[C@@H]1C=C(C(=O)O)C[C@H](NCc2ccc(-c3ccccc3)cc2-c2ccccc2)[C@H]1NC(C)=O` the same measures were 39 nM, 58 nM and 38 nM.
As to `CCC(CC)O[C@@H]1C=C(C(=O)O)C[C@H](NCc2ccc(-c3cccs3)cc2)[C@H]1NC(C)=O`, the IC50 in test [1] was 4.3 nM; in test [2], 14 nM; in test [3] it was 210 nM.
Regarding `CCC(CC)O[C@@H]1C=C(C(=O)O)C[C@H](NC(=N)N)[C@H]1NC(C)=O` [Guanidino-Oseltamivir Carboxylicacid], the IC50 was 2.3 nM in test [1], 2.6 nM in test [2] and 11 nM in test [3].
